Our source for the T/C values is PubChem BioAssay AID274 (DTP/NCI, 2004).

Toxic doses and inconclusive results are not listed.

For the test, the system named is BDF1 mice, Lewis lung carcinoma iv, survival T/C. Description: NCI In Vivo Anticancer Drug Screen. Data for tumor model Lewis Lung Carcinoma (intravenous) in B6D2F1 (BDF1) mice. The settings on record: endpoint: median survival time, higher = longer survival. The protocol:
The antitumor activity of compounds was measured in mice bearing transplantable tumors. Survival or tumor size were measured and the results are expressed as the measurement made in the treated group (T) divided by the measurement made in the vehicle treated control group (C). The tumor model used in this assay is Lewis Lung Carcinoma (intravenous) in B6D2F1 (BDF1) mice

The mark [1] stands for this setting: dose: 32.0 mg/kg/injection, schedule: Q01DX009 (ip), vehicle: Klucel (hydroxypropylcellulose) (HPC).
[2] abbreviates: dose: 64.0 mg/kg/injection, schedule: Q01DX009 (ip), vehicle: Klucel (hydroxypropylcellulose) (HPC).
The mark [3] stands for this setting: dose: 128.0 mg/kg/injection, schedule: Q01DX009 (ip), vehicle: Klucel (hydroxypropylcellulose) (HPC).
The mark [4] stands for this setting: dose: 12.5 mg/kg/injection, schedule: Q01DX009 (ip), vehicle: saline.
The mark [5] stands for this setting: dose: 25.0 mg/kg/injection, schedule: Q01DX009 (ip), vehicle: saline.
Where [6] appears, read: dose: 50.0 mg/kg/injection, schedule: Q01DX009 (ip), vehicle: saline.
The mark [7] stands for this setting: dose: 100.0 mg/kg/injection, schedule: Q01DX009 (ip), vehicle: saline.
The mark [8] stands for this setting: dose: 200.0 mg/kg/injection, schedule: Q01DX009 (ip), vehicle: saline.
Setting [9] is: dose: 400.0 mg/kg/injection, schedule: Q01DX009 (ip), vehicle: saline.
Setting [10] is: dose: 10.0 mg/kg/injection, schedule: Q01DX009 (ip), vehicle: saline.
[11] abbreviates: dose: 20.0 mg/kg/injection, schedule: Q01DX009 (ip), vehicle: saline.

With `Cc1cc(NCCCCCCCNc2cc(C)nc3cc(N)ccc23)c2ccc(N)cc2n1`, the T/C (dose: 0.78 mg/kg/injection, schedule: Q01DX009 (ip), vehicle: saline with Tween-80) is 100 % of control; the T/C (dose: 1.56 mg/kg/injection, schedule: Q01DX009 (ip), vehicle: saline with Tween-80) was 102 % of control; the T/C (dose: 3.12 mg/kg/injection, schedule: Q01DX009 (ip), vehicle: saline with Tween-80) was 102 % of control; the T/C (dose: 6.25 mg/kg/injection, schedule: Q01DX009 (ip), vehicle: saline with Tween-80) is 110 % of control; the T/C (dose: 12.5 mg/kg/injection, schedule: Q01DX009 (ip), vehicle: saline with Tween-80) is 96 % of control.

In the case of `Nc1ncnc2nc[nH]c12`, the T/C by setting is: under setting [1], 99 % of control; under setting [2], 99 % of control; under setting [3], 98 % of control.

As for `CC1CCC(n2cnc3c(Cl)ncnc32)O1` (stereo unspecified), the T/C (dose: 12.0 mg/kg/injection, schedule: Q01DX009 (ip), vehicle: Klucel (hydroxypropylcellulose) (HPC)) is 100 % of control; the T/C (dose: 25.0 mg/kg/injection, schedule: Q01DX009 (ip), vehicle: Klucel (hydroxypropylcellulose) (HPC)) was 109 % of control; the T/C (dose: 50.0 mg/kg/injection, schedule: Q01DX009 (ip), vehicle: Klucel (hydroxypropylcellulose) (HPC)) is 98 % of control; the T/C (dose: 100.0 mg/kg/injection, schedule: Q01DX009 (ip), vehicle: Klucel (hydroxypropylcellulose) (HPC)) is 104 % of control; the T/C (dose: 200.0 mg/kg/injection, schedule: Q01DX009 (ip), vehicle: Klucel (hydroxypropylcellulose) (HPC)) is 96 % of control.

`OCC1(CO)COC2(CCCCC2)N1`: the T/C under setting [4] was 102 % of control; the T/C under setting [5] was 100 % of control; the T/C under setting [6] was 102 % of control; the T/C under setting [7] is 100 % of control; the T/C under setting [8] was 101 % of control; the T/C under setting [9] is 103 % of control.

Turning to `CCc1ncnc2cc(OCC3CO3)c(OC)cc12` (stereo unspecified), the T/C is, setting by setting: (dose: 6.25 mg/kg/injection, schedule: Q01DX009 (ip), vehicle: suspension in saline) 98 % of control; (dose: 12.5 mg/kg/injection, schedule: Q01DX009 (ip), vehicle: suspension in saline) 104 % of control; (dose: 25.0 mg/kg/injection, schedule: Q01DX009 (ip), vehicle: suspension in saline) 93 % of control.

For the molecule `COC(OC(CO)C(O)S(=O)(=O)O)C(O)S(=O)(=O)O` (stereo unspecified), the T/C was 105 % of control under setting [4]; 106 % of control under setting [5]; 102 % of control under setting [6]; 99 % of control under setting [7]; 90 % of control under setting [9].

For the molecule `O=P1(NCCCl)OCCCN1CCCl` (stereo unspecified), the T/C runs as follows: under setting [4], 114 % of control; under setting [5], 112 % of control; under setting [6], 163 % of control; under setting [7], 305 % of control; (dose: 108.0 mg/kg/injection, schedule: Q01DX001 (ip), vehicle: water) 112 % of control; (dose: 190.0 mg/kg/injection, schedule: Q01DX001 (ip), vehicle: saline) 283 % of control. Besides, the T/C by setting is: (dose: 289.0 mg/kg/injection, schedule: Q01DX001 (ip), vehicle: saline) 283 % of control; (dose: 431.0 mg/kg/injection, schedule: Q01DX001 (ip), vehicle: saline) 212 % of control; (dose: 500.0 mg/kg/injection, schedule: Q01DX001 (ip), vehicle: water) 91 % of control.

Turning to `CC(=O)OCC1OC(n2ccc(N)nc2=O)C(OC(C)=O)C1OC(C)=O` (stereo unspecified), the T/C reads like this: under setting [4], 122 % of control; under setting [5], 98 % of control; under setting [6], 109 % of control.

As for `O=C1c2ccccc2C(=O)c2c3c(cc(NCCNCCO)c21)N(CCO)CCN3`, for the setting “dose: 50.0 mg/kg/injection, schedule: Q01DX009 (ip), vehicle: DMSO”, the T/C is 108 % of control.

Take `Nc1nc2c(ncn2C2OC(CO)C(O)C2N)c(=O)[nH]1` (stereo unspecified): the T/C is, setting by setting: (dose: 3.0 mg/kg/injection, schedule: Q01DX009 (ip), vehicle: saline with Tween-80) 101 % of control; (dose: 6.0 mg/kg/injection, schedule: Q01DX009 (ip), vehicle: saline with Tween-80) 110 % of control; (dose: 12.0 mg/kg/injection, schedule: Q01DX009 (ip), vehicle: saline with Tween-80) 108 % of control; (dose: 24.0 mg/kg/injection, schedule: Q01DX009 (ip), vehicle: saline with Tween-80) 99 % of control.

In the case of `Nc1nc(=S)c2ncn(C3OC(CO)CC3O)c2[nH]1` (stereo unspecified), the T/C is, setting by setting: (dose: 5.0 mg/kg/injection, schedule: Q01DX009 (ip), vehicle: saline) 115 % of control; under setting [10], 101 % of control; under setting [11], 87 % of control.

Consider `CCCCCCCCCCCCCCC/C([O-])=N/[N+](C)(C)CC(C)O` (stereo unspecified), for which the T/C (dose: 12.5 mg/kg/injection, schedule: Q01DX001 (ip), vehicle: saline) was 95 % of control; the T/C (dose: 25.0 mg/kg/injection, schedule: Q01DX001 (ip), vehicle: saline) was 96 % of control; the T/C (dose: 50.0 mg/kg/injection, schedule: Q01DX001 (ip), vehicle: saline) is 97 % of control; the T/C (dose: 100.0 mg/kg/injection, schedule: Q01DX001 (ip), vehicle: saline) was 104 % of control; the T/C (dose: 200.0 mg/kg/injection, schedule: Q01DX001 (ip), vehicle: saline) was 108 % of control; the T/C (dose: 400.0 mg/kg/injection, schedule: Q01DX001 (ip), vehicle: saline) is 102 % of control.

Consider `O=C1c2c(O)ccc(O)c2C(=O)c2c(NCCNCCO)ccc(NCCNCCO)c21`, for which the T/C (dose: 1.0 mg/kg/injection, schedule: Q01DX005 (ip), vehicle: saline with Tween-80) was 276 % of control; the T/C (dose: 2.0 mg/kg/injection, schedule: Q01DX005 (ip), vehicle: saline with Tween-80) was 115 % of control; the T/C (dose: 4.0 mg/kg/injection, schedule: Q01DX005 (ip), vehicle: saline with Tween-80) is 116 % of control.

Regarding `O=C(O)CC(NC(=O)CP(=O)(O)O)C(=O)O` (stereo unspecified), the T/C was 165 % of control (dose: 490.0 mg/kg/injection, schedule: Q04DX003 (ip), vehicle: saline) and 100 % of control (dose: 700.0 mg/kg/injection, schedule: Q04DX003 (ip), vehicle: saline).

Turning to `CCOC(=O)CNC(=O)CCCCSc1ncnc2nc[nH]c12`, the T/C runs as follows: (dose: 20.0 mg/kg/injection, schedule: Q01DX009 (ip), vehicle: Klucel (hydroxypropylcellulose) (HPC)) 102 % of control; (dose: 40.0 mg/kg/injection, schedule: Q01DX009 (ip), vehicle: Klucel (hydroxypropylcellulose) (HPC)) 106 % of control; (dose: 80.0 mg/kg/injection, schedule: Q01DX009 (ip), vehicle: Klucel (hydroxypropylcellulose) (HPC)) 98 % of control; (dose: 160.0 mg/kg/injection, schedule: Q01DX009 (ip), vehicle: Klucel (hydroxypropylcellulose) (HPC)) 98 % of control; (dose: 320.0 mg/kg/injection, schedule: Q01DX009 (ip), vehicle: Klucel (hydroxypropylcellulose) (HPC)) 105 % of control.

For the molecule `O=c1cc[nH]c(=O)[nH]1`, the T/C is 105 % of control under setting [1]; 96 % of control under setting [2]; 102 % of control under setting [3]; 86 % of control (dose: 256.0 mg/kg/injection, schedule: Q01DX009 (ip), vehicle: Klucel (hydroxypropylcellulose) (HPC)); 111 % of control (dose: 512.0 mg/kg/injection, schedule: Q01DX009 (ip), vehicle: Klucel (hydroxypropylcellulose) (HPC)).

Turning to `CC1CCOS(=O)O1` (stereo unspecified), the T/C runs as follows: under setting [10], 100 % of control; under setting [11], 94 % of control; (dose: 40.0 mg/kg/injection, schedule: Q01DX009 (ip), vehicle: saline) 95 % of control.

Turning to `COc1ccc(-c2c(C)c(C(=O)O)nc(-c3ccc4c(O)c(OC)c5c(c4n3)=NC(C)(C)N=5)c2N)c(O)c1OC`, the T/C runs as follows: (dose: 10.0 mg/kg/injection, schedule: Q01DX009 (ip), vehicle: saline with Tween-80) 113 % of control; (dose: 20.0 mg/kg/injection, schedule: Q01DX009 (ip), vehicle: saline with Tween-80) 103 % of control; (dose: 40.0 mg/kg/injection, schedule: Q01DX009 (ip), vehicle: saline with Tween-80) 98 % of control.

On to `Nc1ccc(OC(=O)Oc2ccc(N)cc2)cc1`, for which the T/C was 102 % of control under setting [7] and 113 % of control under setting [8].
